Structures are written as SMILES. Structures can show the parent of a compound that is named as a salt. Bounds are passed on as bounds.

Here are results for 20 compounds from patent publication US20240366612A1, “COMPOUNDS AND METHODS FOR MODULATING NUCLEIC ACID SPLICING” (REMIX THERAPEUTICS INC., priority 2021, published 2024).

In one data set the test system is MYB CJ mRNA. Put plainly: Gene panel canonical junction qPCR assay, MYB. Format: cell-based. The conditions noted are these: Homo sapiens, larger gene panel, read-out: MYB IC50 (decrease in CJ mRNA levels). The gist of the method: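 A673 or K562 cells treated 24 h with 11-point 3-fold dilutions (top 10 µM, ≤0.25% DMSO) at 37 °C. Canonical exon-junction mRNA measured by probe-based RT-qPCR, normalized to GAPDH, GUSB or PPIA and DMSO (2^−ΔΔCt), converted to percent response over a fixed ΔCt window; IC50 from 4-parameter fit.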
For orientation: Real-time PCR tracks product formation cycle by cycle.

A short description of another data set: in vitro. Conditions: human.
The test system of data set [1] is HiBiT-tagged MYB protein in K562 cells. The data set can be described thus: HiBiT protein abundance assay, MYB. It is filed as cell-based, human. The conditions noted are these: HiBiT-modified K562 cells, 24 hours, luminescence. The gist of the method:
(§1)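 K562 lines with the endogenous target HiBiT-tagged, seeded in IMDM+1% FBS, got a 10-point 3-fold dilution series (top final 10 μM, DMSO ≤0.25%) for 24 hours at 37° C. Lytic LgBiT luminescence was normalized against unmodified-K562 and DMSO-only controls, and IC50 was interpolated at 50% from a four-parameter logistic fit.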
A general note: HiBiT is a short tag that completes a luciferase, so light tracks the accessible tagged protein.

Data set [2] concerns HiBiT-tagged Target C protein in K562 cells. Put plainly: HiBiT protein abundance assay, Target C. The conditions noted are these: HiBiT-modified K562 cells, 24 hours, luminescence. It is filed as cell-based, human. The essentials:
as §1

Data set [3] has as its system HiBiT-tagged HTT protein in K562 cells. Put plainly: HiBiT protein abundance assay, HTT. Conditions: HiBiT-modified K562 cells, 24 hours, luminescence. It is filed as cell-based, human. The essentials: as §1

Turning to `Cc1cn2nc(-c3cc(=O)n4cc(N(C)C5CC(C)(C)NC(C)(C)C5)sc4n3)cc(C)c2n1` [Compound 205, 7-(2,8-dimethylimidazo[1,2-b]pyridazin-6-yl)-2-(methyl(2,2,6,6-tetramethylpiperidin-4-yl)amino)-5H-thiazolo[3,2-a]pyrimidin-5-one], the IC50 (with MYB CJ mRNA; in data set [1]; in data set [2]; in data set [3]) was 1000 to 10000 nM throughout. Also, the GI50 (as a rule, the concentration giving 50% growth inhibition) at 72 h in the data set “in vitro” is 1 to 10 µM.

Turning to `Cc1cn2cc(-c3nn4c(=O)cc(N(C)C5CC(C)(C)NC(C)(C)C5)nc4s3)cc(F)c2n1` [Compound 215, 2-(8-fluoro-2-methylimidazo[1,2-a]pyridin-6-yl)-7-(methyl(2,2,6,6-tetramethylpiperidin-4-yl)amino)-5H-[1,3,4]thiadiazolo[3,2-a]pyrimidin-5-one], the IC50 (in general, the concentration at which inhibition is half-maximal) in the data set with MYB CJ mRNA was 1000 to 10000 nM; in data set [1], 1000 to 10000 nM; in data set [2] it was greater than 10000 nM; in data set [3], greater than 10000 nM. In addition, the GI50 at 72 h in “in vitro” was in the range of 1 to 10 µM.

Consider `Cc1cn2cc(-n3cnc4nc(N(C)C5CC(C)(C)NC(C)(C)C5)sc4c3=O)cc(F)c2n1` [Compound 227, 6-(8-fluoro-2-methylimidazo[1,2-a]pyridin-6-yl)-2-(methyl(2,2,6,6-tetramethylpiperidin-4-yl)amino)thiazolo[4,5-d]pyrimidin-7(6H)-one, formate], for which the IC50 (in the data set on MYB CJ mRNA; in data set [1]; in data set [2]; in data set [3]) was greater than 10000 nM in each case. This compound also showed a GI50 at 72 h in “in vitro” greater than 10 µM.

For the compound `Cc1cn2cc(-c3cc4ncn(C5CCNC5)c(=O)c4s3)cc(F)c2n1` (centres unmarked) [Compound 270, 6-{8-fluoro-2-methylimidazo[1,2-a]pyridin-6-yl}-3-(pyrrolidin-3-yl)thieno[3,2-d]pyrimidin-4-one], the IC50 (with MYB CJ mRNA; in data set [1]; in data set [2]; in data set [3]) was 100 to 1000 nM in each case.

As to `Cc1nc(-c2cc3ncn(C4CCNCC4)c(=O)c3s2)cc2cn(C)nc12` [Compound 271], the IC50 in the data set on MYB CJ mRNA was in the range of 100 to 1000 nM; in data set [1], 1000 to 10000 nM; in data set [2], 1000 to 10000 nM; in data set [3] it was 1000 to 10000 nM.

As to `Cc1cn2cc(-c3cc4ncn(C5CCNCC5(F)F)c(=O)c4s3)cc(F)c2n1` (centres unmarked) [Compound 274, 3-(3,3-difluoropiperidin-4-yl)-6-{8-fluoro-2-methylimidazo[1,2-a]pyridin-6-yl}thieno[3,2-d]pyrimidin-4-one], the IC50 (in the data set with MYB CJ mRNA; in data set [1]; in data set [2]; in data set [3]) was greater than 10000 nM throughout.

In the case of `Cc1cn2cc(-c3cc4ncn(C5CCCNCC5)c(=O)c4s3)cc(F)c2n1` (centres unmarked) [Compound 275, 3-(azepan-4-yl)-6-{8-fluoro-2-methylimidazo[1,2-a]pyridin-6-yl}thieno[3,2-d]pyrimidin-4-one], the IC50 (in the data set on MYB CJ mRNA; in data set [1]; in data set [2]; in data set [3]) was 100 to 1000 nM throughout.

Turning to `Cc1cn2cc(-c3cc4ncn(C5=CCNCC5)c(=O)c4s3)cc(F)c2n1` [Compound 276, 6-{8-fluoro-2-methylimidazo[1,2-a]pyridin-6-yl}-3-(1,2,3,6-tetrahydropyridin-4-yl)thieno[3,2-d]pyrimidin-4-one], the IC50 (in the data set on MYB CJ mRNA; in data set [1]; in data set [2]; in data set [3]) was 100 to 1000 nM in each case.

On to `Cc1cn2cc(-c3cc4ncn(C5CNCCC5=O)c(=O)c4s3)cc(F)c2n1` (centres unmarked) [Compound 279, 3-(6-{8-fluoro-2-methylimidazo[1,2-a]pyridin-6-yl}-4-oxothieno [3,2-d]pyrimidin-3-yl)piperidin-4-one], for which the IC50 (with MYB CJ mRNA; in data set [1]; in data set [2]; in data set [3]) was greater than 10000 nM each time.

On to `Cc1cn2cc(N3CCc4cc(C5CCNCC5)sc4C3=O)cc(F)c2n1` [Compound 800, 6-[8-fluoro-2-methylimidazo[1,2-a]pyridin-6-yl]-2-(piperidin-4-yl)-4H,5H-thieno[2,3-c]pyridin-7-one], for which the IC50 (in the data set with MYB CJ mRNA; in data set [1]; in data set [2]; in data set [3]) was greater than 10000 nM each time.

Turning to `Cc1cn2cc(-n3ccc4cc(C5CCNCC5)sc4c3=O)cc(F)c2n1` [Compound 801, 6-[8-fluoro-2-methylimidazo[1,2-a]pyridin-6-yl]-2-(piperidin-4-yl)thieno[2,3-c]pyridin-7-one], the IC50 (with MYB CJ mRNA; in data set [1]; in data set [2]; in data set [3]) was greater than 10000 nM in each case.

As to `Cc1cc(-c2cc3cnn(C4CCNCC4)c(=O)c3s2)cc2cn(C)nc12` [Compound 802, 2-(2,7-dimethyl-2H-indazol-5-yl)-6-(piperidin-4-yl)thieno[2,3-d]pyridazin-7(6H)-one], the IC50 in the data set with MYB CJ mRNA is 100 to 1000 nM; in data set [1], 100 to 1000 nM; in data set [2] it was 100 to 1000 nM; in data set [3], less than 100 nM.

As to `Cc1cn2cc(-c3cc4ccn(C5CCNCC5)c(=O)c4s3)cc(F)c2n1` [Compound 804, 2-(8-fluoro-2-methylimidazo[1,2-a]pyridin-6-yl)-6-(piperidin-4-yl)thieno[2,3-c]pyridin-7(6H)-one], the IC50 (with MYB CJ mRNA; in data set [1]; in data set [2]; in data set [3]) was 100 to 1000 nM in each case.

For the compound `Cc1cc(-c2cc3ccn(C4CCNCC4)c(=O)c3s2)cc2cn(C)nc12` [Compound 805, 2-(2,7-dimethyl-2H-indazol-5-yl)-6-(piperidin-4-yl)thieno[2,3-c]pyridin-7(6H)-one], the IC50 (in the data set on MYB CJ mRNA; in data set [1]; in data set [2]; in data set [3]) was 100 to 1000 nM each time.

Consider `Cc1cn2nc(-c3cc4ccn(C5CCNCC5)c(=O)c4s3)cc(C)c2n1` [Compound 806, 2-(2,8-dimethylimidazo[1,2-b]pyridazin-6-yl)-6-(piperidin-4-yl)thieno[2,3-c]pyridin-7(6H)-one], for which the IC50 (with MYB CJ mRNA; in data set [1]; in data set [2]; in data set [3]) was 100 to 1000 nM throughout.

`Cc1cn2cc(-c3cc4ccn(C5CCN(C)CC5)c(=O)c4s3)cc(F)c2n1` [Compound 808, 2-(8-fluoro-2-methylimidazo[1,2-a]pyridin-6-yl)-6-(1-methylpiperidin-4-yl)thieno[2,3-c]pyridin-7(6H)-one]: the IC50 lay in the range of 100 to 1000 nM in the data set with MYB CJ mRNA, 100 to 1000 nM in data set [1], 1000 to 10000 nM in data set [2] and 100 to 1000 nM in data set [3].

In the case of `Cc1cn2nc(-c3cc4ccn(C5CCN(C)CC5)c(=O)c4s3)cc(C)c2n1` [Compound 809], the IC50 (in the data set with MYB CJ mRNA; in data set [1]; in data set [2]; in data set [3]) was 1000 to 10000 nM each time.

`Cc1cn2nc(-c3nc4cnn(C5CCNCC5)c(=O)c4s3)cc(C)c2n1` [Compound 810]: the IC50 (with MYB CJ mRNA; in data set [1]; in data set [2]; in data set [3]) was 100 to 1000 nM each time.

Take `Cc1nc(-c2nc3cnn(C4CCNCC4)c(=O)c3s2)cc2cn(C)nc12` [Compound 811]: the IC50 was 1000 to 10000 nM with MYB CJ mRNA, 1000 to 10000 nM in data set [1], greater than 10000 nM in data set [2] and 1000 to 10000 nM in data set [3].

As for `Cc1cn2cc(-c3nc4cnn(C5CCNCC5)c(=O)c4s3)nc(C)c2n1` [Compound 812, 2-(2,8-dimethylimidazo[1,2-a]pyrazin-6-yl)-6-(piperidin-4-yl)thiazolo[4,5-d]pyridazin-7(6H)-one], the IC50 with MYB CJ mRNA was greater than 10000 nM; in data set [1], 100 to 1000 nM; in data set [2], 100 to 1000 nM; in data set [3], 100 to 1000 nM.
